Assay results taken from PubChem BioAssay (NCI).
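1) Cells in 96-well plates. 2) Compound, 48 h, 5 concentrations. 3) Linear interpolation between surrounding doses. 4) Unreached endpoint = highest concentration. GI50 marks 50% less growth. TGI is the concentration that stops growth completely.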

Key:
Test in all cases: DTP human tumour cell line panel, 48 h
OVCAR-5 ovarian = tested on: OVCAR-5 ovarian
SF-268 CNS = tested on: SF-268 CNS
RXF 393 renal = tested on: RXF 393 renal
OVCAR-8 ovarian = tested on: OVCAR-8 ovarian
OVCAR-3 ovarian = tested on: OVCAR-3 ovarian
DU-145 prostate = tested on: DU-145 prostate
UACC-257 melanoma = tested on: UACC-257 melanoma
PC-3 prostate = tested on: PC-3 prostate
NCI-H460 lung = tested on: NCI-H460 lung
SK-MEL-2 melanoma = tested on: SK-MEL-2 melanoma
HCT-116 colon = tested on: HCT-116 colon
CAKI-1 renal = tested on: CAKI-1 renal
SF-295 CNS = tested on: SF-295 CNS
MALME-3M melanoma = tested on: MALME-3M melanoma
HCT-15 colon = tested on: HCT-15 colon
UO-31 renal = tested on: UO-31 renal
HOP-62 NSCLC = tested on: HOP-62 NSCLC
ACHN renal = tested on: ACHN renal
RPMI-8226 leukemia = tested on: RPMI-8226 leukemia
HS 578T breast = tested on: HS 578T breast
786-0 renal = tested on: 786-0 renal
HT29 colon = tested on: HT29 colon
SW-620 colon = tested on: SW-620 colon
MDA-MB-231 breast = tested on: MDA-MB-231 breast
MOLT-4 leukemia = tested on: MOLT-4 leukemia
SNB-75 CNS = tested on: SNB-75 CNS
HOP-92 NSCLC = tested on: HOP-92 NSCLC
K-562 leukemia = tested on: K-562 leukemia
OVCAR-4 ovarian = tested on: OVCAR-4 ovarian
SK-OV-3 ovarian = tested on: SK-OV-3 ovarian
T-47D breast = tested on: T-47D breast
MCF7 breast = tested on: MCF7 breast
M14 melanoma = tested on: M14 melanoma
HCC-2998 colon = tested on: HCC-2998 colon
COLO 205 colon = tested on: COLO 205 colon
KM12 colon = tested on: KM12 colon
SNB-19 CNS = tested on: SNB-19 CNS
NCI-H23 lung = tested on: NCI-H23 lung
IGROV1 ovarian = tested on: IGROV1 ovarian
MDA-MB-435 = tested on: MDA-MB-435
TK-10 renal = tested on: TK-10 renal
NCI/ADR-RES ovarian = tested on: NCI/ADR-RES ovarian

SMILES: CNc1ccc(C(=O)CC(O)CCC(C)C2OC(=O)CC(O)CC(=O)CC(O)CC(O)CC(O)CC(O)CC3(O)CC(O)C(C(=O)NCCN(C)C)C(CC(OC4OC(C)C(O)C(NC(=O)CN5CCN(CCO)CC5)C4O)/C=C/C=C/C=C/C=C\C=C/C=C/C=C/C2C)O3)cc1 (configuration not stated)
- GI50 (OVCAR-5 ovarian): 3.59 µM
- TGI (OVCAR-5 ovarian): > 30.6 µM
- GI50 (SF-268 CNS): 0.193 µM
- TGI (SF-268 CNS): > 50 µM
- GI50 (RXF 393 renal): > 50 µM
- TGI (RXF 393 renal): > 50 µM
- GI50 (OVCAR-8 ovarian): 2.5 µM
- TGI (OVCAR-8 ovarian): > 50 µM
- GI50 (OVCAR-3 ovarian): 0.768 µM
- TGI (OVCAR-3 ovarian): 3.03 µM
- GI50 (DU-145 prostate): 0.161 µM
- TGI (DU-145 prostate): 0.61 µM
- GI50 (UACC-257 melanoma): 0.935 µM
- TGI (UACC-257 melanoma): 2.79 µM
- GI50 (PC-3 prostate): 0.296 µM
- TGI (PC-3 prostate): > 50 µM
- GI50 (NCI-H460 lung): 0.242 µM
- TGI (NCI-H460 lung): 1.74 µM
- GI50 (SK-MEL-2 melanoma): 19.9 µM
- TGI (SK-MEL-2 melanoma): > 50 µM
- GI50 (HCT-116 colon): 0.546 µM
- TGI (HCT-116 colon): 2.13 µM
- GI50 (CAKI-1 renal): 0.192 µM
- TGI (CAKI-1 renal): > 18.7 µM
- GI50 (SF-295 CNS): 0.706 µM
- TGI (SF-295 CNS): 1.64 µM
- GI50 (MALME-3M melanoma): 0.0966 µM
- TGI (MALME-3M melanoma): 0.3 µM
- GI50 (HCT-15 colon): 2.92 µM
- TGI (HCT-15 colon): > 50 µM
- GI50 (UO-31 renal): 2.17 µM
- TGI (UO-31 renal): > 50 µM
- GI50 (HOP-62 NSCLC): 1.17 µM
- TGI (HOP-62 NSCLC): 6.21 µM
- GI50 (ACHN renal): 1.12 µM
- TGI (ACHN renal): 2.44 µM
- GI50 (RPMI-8226 leukemia): > 50 µM
- TGI (RPMI-8226 leukemia): > 50 µM
- GI50 (HS 578T breast): > 50 µM
- TGI (HS 578T breast): > 50 µM
- GI50 (786-0 renal): 0.197 µM
- TGI (786-0 renal): > 50 µM
- GI50 (HT29 colon): 0.931 µM
- TGI (HT29 colon): > 11.6 µM
- GI50 (SW-620 colon): 0.728 µM
- TGI (SW-620 colon): > 50 µM
- GI50 (MDA-MB-231 breast): 0.832 µM
- TGI (MDA-MB-231 breast): 2.91 µM
- GI50 (MOLT-4 leukemia): 0.424 µM
- TGI (MOLT-4 leukemia): > 21.4 µM
- GI50 (SNB-75 CNS): > 22.3 µM
- TGI (SNB-75 CNS): > 50 µM
- TGI (HOP-92 NSCLC): > 50 µM
- GI50 (K-562 leukemia): 0.163 µM
- TGI (K-562 leukemia): 1.35 µM
- GI50 (OVCAR-4 ovarian): 1.65 µM
- TGI (OVCAR-4 ovarian): > 17.4 µM
- GI50 (SK-OV-3 ovarian): 2.38 µM
- TGI (SK-OV-3 ovarian): > 50 µM
- GI50 (T-47D breast): 1.08 µM
- TGI (T-47D breast): > 50 µM
- GI50 (MCF7 breast): 0.219 µM
- TGI (MCF7 breast): > 50 µM
- GI50 (M14 melanoma): 0.494 µM
- TGI (M14 melanoma): 1.51 µM
- GI50 (HCC-2998 colon): 1.91 µM
- TGI (HCC-2998 colon): 4.26 µM
- GI50 (COLO 205 colon): 0.508 µM
- TGI (COLO 205 colon): 1.81 µM
- GI50 (KM12 colon): 0.165 µM
- TGI (KM12 colon): 0.49 µM
- GI50 (SNB-19 CNS): 1.62 µM
- TGI (SNB-19 CNS): > 50 µM
- GI50 (NCI-H23 lung): 14.8 µM
- TGI (NCI-H23 lung): 47.3 µM
- GI50 (IGROV1 ovarian): > 50 µM
- TGI (IGROV1 ovarian): > 50 µM
- GI50 (MDA-MB-435): 0.692 µM
- TGI (MDA-MB-435): 1.91 µM
- GI50 (TK-10 renal): 0.143 µM
- GI50 (NCI/ADR-RES ovarian): 2.07 µM
- TGI (NCI/ADR-RES ovarian): 14.2 µM
